Experimental data as given in patent publication US20230257372A1 (CHONG KUN DANG PHARMACEUTICAL CORP., priority 2020, published 2023).
Where two headings read alike, the source gives them in different places.

How the values were obtained:
[1] = molecular target: T1, human recombinant HDAC1 (Homo sapiens, UniProt Q13547); assay: HDAC1 enzyme activity inhibition (HDAC Fluorimetric Drug Discovery Kit); format: biochemical; details: read-out: HDAC1
T1 construct: purchased Enzo Life Science, Inc. BML-SE456
How it was run: (§1)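 Fluorescence from a Fluor de Lys developer step (30 minutes) reports residual deacetylation after a 60-minute, 30° C reaction of […] enzyme with 10 μM substrate and 5-fold compound dilutions.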

[2] = molecular target: T2, human recombinant HDAC6 (Homo sapiens, UniProt Q9UBN7); assay: HDAC6 enzyme activity inhibition (HDAC Fluorimetric Drug Discovery Kit); format: biochemical
T2 construct: purchased Calbiochem Inc. 382180
T2 sequence (Q9UBN7 1-1215): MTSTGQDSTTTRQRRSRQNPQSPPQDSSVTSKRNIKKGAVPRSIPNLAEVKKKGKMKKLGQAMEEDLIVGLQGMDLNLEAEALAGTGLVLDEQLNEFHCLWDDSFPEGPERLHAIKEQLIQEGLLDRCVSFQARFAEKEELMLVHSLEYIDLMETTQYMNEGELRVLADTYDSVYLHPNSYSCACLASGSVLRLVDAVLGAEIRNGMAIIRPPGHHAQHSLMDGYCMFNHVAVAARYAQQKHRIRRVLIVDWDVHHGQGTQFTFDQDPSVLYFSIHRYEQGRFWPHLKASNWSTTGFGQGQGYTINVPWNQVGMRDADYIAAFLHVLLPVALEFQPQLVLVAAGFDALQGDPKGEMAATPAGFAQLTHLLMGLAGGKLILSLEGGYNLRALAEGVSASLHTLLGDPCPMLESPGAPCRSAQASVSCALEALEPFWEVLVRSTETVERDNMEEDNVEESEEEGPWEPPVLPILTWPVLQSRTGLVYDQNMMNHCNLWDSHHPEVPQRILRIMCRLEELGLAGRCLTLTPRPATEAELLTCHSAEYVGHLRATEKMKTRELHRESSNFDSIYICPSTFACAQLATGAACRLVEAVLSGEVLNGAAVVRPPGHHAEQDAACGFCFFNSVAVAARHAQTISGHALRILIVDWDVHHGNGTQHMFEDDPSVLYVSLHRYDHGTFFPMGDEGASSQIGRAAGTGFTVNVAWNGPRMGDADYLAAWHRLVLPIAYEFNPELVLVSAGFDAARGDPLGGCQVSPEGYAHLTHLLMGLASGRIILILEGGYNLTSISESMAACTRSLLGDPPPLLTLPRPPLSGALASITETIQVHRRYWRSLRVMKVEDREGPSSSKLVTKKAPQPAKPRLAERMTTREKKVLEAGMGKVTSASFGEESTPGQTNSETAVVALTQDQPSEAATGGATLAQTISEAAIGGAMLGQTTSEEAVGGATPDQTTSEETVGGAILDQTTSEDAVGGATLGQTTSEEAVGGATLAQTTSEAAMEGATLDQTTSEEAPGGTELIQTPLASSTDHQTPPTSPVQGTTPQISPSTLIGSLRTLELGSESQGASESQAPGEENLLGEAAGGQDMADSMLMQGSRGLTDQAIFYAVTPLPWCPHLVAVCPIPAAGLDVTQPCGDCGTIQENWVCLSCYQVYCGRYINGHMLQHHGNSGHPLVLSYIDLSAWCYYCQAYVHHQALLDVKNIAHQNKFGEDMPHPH
How it was run: as §1

[3] = test system: hippocampal neurons from a Sprague-Dawley (SD) rat fetus; assay: Effect of HDAC6-specific inhibitor on axonal transport of mitochondria in amyloid-beta treated neurons; format: cell-based; details: transport velocity of mitochondria in neuronal axon after normalization; vehicle = 100%, amyloid beta treatment group = 0%; compound treatment for three hours
Protocol: On the 17th to 18th days (E17-18) of insemination, the hippocampal neurons from a Sprague-Dawley (SD) rat fetus were cultured in a culture container for imaging, which had been coated with extracellular matrix, and were treated with amyloid-beta protein fragments at a concentration of […]. In 24 hours later, the neurons were treated with the compound on the 8th day of in vitro culture. In three hours later, the resulting neurons were treated with MitoTracker Red CMXRos (Life Technologies, NY, USA) for last five minutes to stain mitochondria. An image on the axonal transport of stained neuron mitochondria was taken with a confocal microscope (Leica SP8; Leica microsystems, UK) at an interval of one second for one minute to measure a transport velocity of each mitochondria per second with an IMARIS analysis program (BITPLANE, Zurich, Switzerland).
In result, after setting a section, in which the group treated with amyloid-beta had shown a significant decrease in the transport velocity of mitochondria compared to a vehicle, it was confirmed for 1,3,4-oxadiazole triazol derivative compounds of the present invention, stereoisomers thereof or pharmaceutically acceptable salts thereof that the vehicles is represented as 100%, the amyloid beta treatment group is represented as 0%, a velocity distribution of the compound after normalization is represented as *, 0%˜50%; **, 50%˜100%; ***, >100%.

[4] = human recombinant HDAC1, IC50 calculated with GraphPad Prism
[5] = human recombinant HDAC6, IC50 calculated with GraphPad Prism
[6] = human recombinant HDAC1, Fluor de Lys substrate, 30° C. 60 minutes
[7] = human recombinant HDAC6, same protocol as HDAC1

T1 sequence (Q13547 whole entry): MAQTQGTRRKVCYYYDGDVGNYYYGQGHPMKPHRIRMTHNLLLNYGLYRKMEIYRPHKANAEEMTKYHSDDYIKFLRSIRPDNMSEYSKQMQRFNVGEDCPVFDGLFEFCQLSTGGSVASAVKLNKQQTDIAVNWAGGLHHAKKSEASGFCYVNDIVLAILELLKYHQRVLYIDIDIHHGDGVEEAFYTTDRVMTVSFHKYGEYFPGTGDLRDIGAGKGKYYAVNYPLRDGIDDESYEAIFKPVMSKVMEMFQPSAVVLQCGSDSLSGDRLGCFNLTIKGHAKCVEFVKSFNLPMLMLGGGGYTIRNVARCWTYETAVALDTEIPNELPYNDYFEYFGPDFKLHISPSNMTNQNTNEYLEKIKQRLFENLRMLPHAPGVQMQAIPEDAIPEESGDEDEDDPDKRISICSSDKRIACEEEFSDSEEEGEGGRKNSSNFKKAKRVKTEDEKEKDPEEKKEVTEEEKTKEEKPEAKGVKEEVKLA

IC50 [1, 4] | HDAC6 selectivity (fold) ([2]; HDAC1 IC50 / HDAC6 IC50) | IC50 [2, 5] | IC50 [1, 6] | HDAC6 selectivity (fold) ([2]; HDAC6 over HDAC1) | IC50 [2, 7] | Structure (SMILES) | Velocity distribution (%) [3]
> 50000 nM | 1259 fold | 39.7 nM | – | – | – | Fc1cccc(-c2cn(Cc3ccc(-c4nnc(C(F)F)o4)cn3)nn2)c1 [Compound 3854, 2-(difluoromethyl)-5-(6-((4-(3-fluorophenyl)-1H-1,2,3-triazol-1-yl)methyl)pyridin-3-yl)-1,3,4-oxadiazole] | *** (***, >100%)
> 50000 nM | 2358 fold | 21.2 nM | – | – | – | CC(C)N1CCC(c2cccc(-c3cn(Cc4ccc(-c5nnc(C(F)F)o5)cn4)nn3)c2)CC1 [Compound 4012, 2-(difluoromethyl)-5-(6-((4-(3-(1-isopropylpiperidin-4-yl)phenyl)-1H-1,2,3-triazol-1-yl)methyl)pyridin-3-yl)-1,3,4-oxadiazole] | *** (***, >100%)
> 50000 nM | 5882 fold | 8.5 nM | – | – | – | FC(F)c1nnc(-c2ccc(Cn3cc(-c4ccc5c(CN6CCCC6)c[nH]c5c4)nn3)cc2)o1 [Compound 4108, 2-(difluoromethyl)-5-(4-((4-(3-(pyrrolidin-1-ylmethyl)-1H-indol-6-yl)-1H-1,2,3-triazol-1-yl)methyl)phenyl)-1,3,4-oxadiazole] | *** (***, >100%)
– | – | – | > 50000 nM | 2272 fold | 22 nM | Fc1cc(-c2nnc(C(F)F)o2)ccc1Cn1cc(-c2ccc(CN3CCCC3)cn2)nn1 [Compound 17533, 2-(difluoromethyl)-5-(3-fluoro-4-((4-(5-(pyrrolidin-1-ylmethyl)pyridin-2-yl)-1H-1,2,3-triazol-1-yl)methyl)phenyl)-1,3,4-oxadiazole] | * (*, 0%˜50%)
> 50000 nM | 1128 fold | 44.3 nM | – | – | – | CCN1CCc2cc(-c3cn(Cc4ccc(-c5nnc(C(F)F)o5)cn4)nn3)ccc2C1 [Compound 4052, 2-(difluoromethyl)-5-(6-((4-(2-ethyl-1,2,3,4-tetrahydroisoquinolin-6-yl)-1H-1,2,3-triazol-1-yl)methyl)pyridin-3-yl)-1,3,4-oxadiazole] | ** (**, 50%˜100%)
> 50000 nM | 868 fold | 57.6 nM | – | – | – | FC(F)c1nnc(-c2ccc(Cn3cc(-c4ccc5c(c4)CCN(C4COC4)C5)nn3)nc2)o1 [Compound 4055, 2-(difluoromethyl)-5-(6-((4-(2-(oxetan-3-yl)-1,2,3,4-tetrahydroisoquinolin-6-yl)-1H-1,2,3-triazol-1-yl)methyl)pyridin-3-yl)-1,3,4-oxadiazole] | * (*, 0%˜50%)
> 50000 nM | 1547 fold | 32.3 nM | – | – | – | CC(C)N1CC(N2CCC(c3cccc(-c4cn(Cc5ccc(-c6nnc(C(F)F)o6)cc5F)nn4)c3)CC2)C1 [Compound 4296] | ** (**, 50%˜100%)
> 50000 nM | 2369 fold | 21.1 nM | – | – | – | CN1CCC(c2cccc(-c3cn(Cc4ccc(-c5nnc(C(F)F)o5)cn4)nn3)c2)CC1 [Compound 4010, 2-(difluoromethyl)-5-(6-((4-(3-(1-methylpiperidin-4-yl)phenyl)-1H-1,2,3-triazol-1-yl)methyl)pyridin-3-yl)-1,3,4-oxadiazole] | *** (***, >100%)
> 50000 nM | 822 fold | 60.8 nM | – | – | – | FC(F)c1nnc(-c2ccc(Cn3cc(-c4ccc5occc5c4)nn3)nc2)o1 [Compound 4073, 2-(6-((4-(benzofuran-5-yl)-1H-1,2,3-triazol-1-yl)methyl)pyridin-3-yl)-5-(difluoromethyl)-1,3,4-oxadiazole] | ** (**, 50%˜100%)
– | – | – | > 50000 nM | 1028 fold | 48.6 nM | CC1CCN(Cc2ccc(-c3cn(Cc4ncc(-c5nnc(C(F)F)o5)cc4F)nn3)cc2)CC1 [Compound 18307, 2-(difluoromethyl)-5-(5-fluoro-6-((4-(4-((4-methylpiperidin-1-yl)methyl)phenyl)-1H-1,2,3-triazol-1-yl)methyl)pyridin-3-yl)-1,3,4-oxadiazole] | *** (***, >100%)
> 50000 nM | – | – | – | – | – | Fc1cc(-c2nnc(C(F)F)o2)ccc1Cn1cc(-c2ccc3[nH]ncc3c2)nn1 [Compound 4345, 2-(4-((4-(1H-indazol-5-yl)-1H-1,2,3-triazol-1-yl)methyl)-3-fluorophenyl)-5-(difluoromethyl)-1,3,4-oxadiazole] | * (*, 0%˜50%)
> 50000 nM | – | – | – | – | – | FC(F)c1nnc(-c2ccc(Cn3nnc(-c4ccccc4)n3)nc2)o1 [Compound 4234, 2-(difluoromethyl)-5-(6-((5-phenyl-2H-tetrazol-2-yl)methyl)pyridin-3-yl)-1,3,4-oxadiazole] | *** (***, >100%)
– | – | – | > 50000 nM | 986 fold | 50.7 nM | CCN1CCN(Cc2ccc(-c3cn(Cc4ccc(-c5nnc(C(F)F)o5)cc4)nn3)cc2)CC1 [Compound 4553, 2-(difluoromethyl)-5-(4-((4-(4-((4-ethylpiperazin-1-yl)methyl)phenyl)-1H-1,2,3-triazol-1-yl)methyl)phenyl)-1,3,4-oxadiazole] | –
> 50000 nM | 103 fold | 484 nM | – | – | – | FC(F)c1nnc(-c2ccc(Cn3cc(C4CCCN(C5COC5)C4)nn3)nc2)o1 (centres unmarked) [Compound 4003] | –
> 50000 nM | 782 fold | 63.9 nM | – | – | – | O=C(O)c1cccc(-c2cn(Cc3ccc(-c4nnc(C(F)F)o4)cn3)nn2)c1 [Compound 3739] | –
> 50000 nM | 3105 fold | 16.1 nM | – | – | – | O=c1ccc(-c2cn(Cc3ccc(-c4nnc(C(F)F)o4)cn3)nn2)c[nH]1 [Compound 3845, 5-(1-((5-(5-(difluoromethyl)-1,3,4-oxadiazol-2-yl)pyridin-2-yl)methyl)-1H-1,2,3-triazol-4-yl)pyridin-2(1H)-one] | –
– | – | – | > 50000 nM | 784 fold | 63.7 nM | CC1CCN(Cc2ccc(-c3cn(Cc4ccc(-c5nnc(C(F)F)o5)cc4F)nn3)cn2)CC1 [Compound 18177, 2-(difluoromethyl)-5-(3-fluoro-4-((4-(6-((4-methylpiperidin-1-yl)methyl)pyridin-3-yl)-1H-1,2,3-triazol-1-yl)methyl)phenyl)-1,3,4-oxadiazole] | –
> 50000 nM | 171 fold | 293 nM | – | – | – | CC(C)(F)CN1CCC(c2cn(Cc3ccc(-c4nnc(C(F)F)o4)cn3)nn2)CC1 [Compound 3895, 2-(difluoromethyl)-5-(6-((4-(1-(2-fluoro-2-methylpropyl)piperidin-4-yl)-1H-1,2,3-triazol-1-yl)methyl)pyridin-3-yl)-1,3,4-oxadiazole] | –
